According to patent US20220257619A1, “LONG-ACTING FORMULATIONS OF TENOFOVIR ALAFENAMIDE” (Gilead Sciences, Inc., priority 2019, published 2022):
Values after ≈ are worked out from the molar mass of the structure shown. Where two headings read alike, the source gives them in different places. Marks after values point to notes of the source that are not given here.

Legend:
physchem = details: 37 °C, organic solvent or mixture, thermodynamic from solid
[1] = solvent BB, 37° C., asterisk: taken at 4 days, as opposed to 5 days

Molecule | Solubility (mg/mL, Calculated as Free Base Equivalent) [1] | solubility at 1 day (physchem; ACN) [mg/mL] | solubility at 5 days (physchem; ACN) [mg/mL] | solubility at 1 day (physchem; DCM) [mg/mL] | solubility at 5 days (physchem; DCM) [mg/mL] | solubility at 1 day (physchem; DMSO) [mg/mL] | solubility at 5 days (physchem; DMSO) [mg/mL] | solubility at 1 day (physchem; NMP) [mg/mL] | solubility at 5 days (physchem; NMP) [mg/mL] | solubility at 1 day (physchem; PC) [mg/mL] | solubility at 5 days (physchem; PC) [mg/mL] | Solubility (mg/mL, Calculated as Free Base Equivalent) (solvent ACN, 37° C./5 days) [mg/mL] | Solubility (mg/mL, Calculated as Free Base Equivalent) (solvent DCM, 37° C./5 days) [mg/mL] | Solubility (mg/mL, Calculated as Free Base Equivalent) (solvent DMSO, 37° C./5 days) [mg/mL] | Solubility (mg/mL, Calculated as Free Base Equivalent) (solvent NMP, 37° C./5 days) [mg/mL] | Solubility (mg/mL, Calculated as Free Base Equivalent) (solvent PC, 37° C./5 days) [mg/mL]
CC(C)OC(=O)[C@H](C)N[P@](=O)(CO[C@H](C)Cn1cnc2c(N)ncnc21)Oc1ccccc1 [TAF Free base, (S)-isopropyl-2-(((S)-((((R)-1-(6-amino-9H-purin-9-yl)propan-2-yl)oxy)methyl)(phenoxy)phosphoryl)amino)propanoate] | 5.0 mg/mL | 15 (≈ 31.5 mM) | 13 (≈ 27.3 mM) | 146 (≈ 306 mM) | 384 (≈ 806 mM) | 96 (≈ 201 mM) | 182 (≈ 382 mM) | 96 (≈ 201 mM) | 161 (≈ 338 mM) | 15 (≈ 31.5 mM) | 26 (≈ 54.6 mM) |  |  |  |  | 
tenofovir alafenamide hemifumarate [TAF Hemifumarate] | 3.9* mg/mL |  |  |  |  |  |  |  |  |  |  | 11 | 97 | 132 | 160 | 22
